In brackets after ≈: the same amount, converted by molar mass.
Key:
Escherichia coli [1] = assay: Antibacterial activity against Escherichia coli K-12 W3110 after 20 hrs by liquid microdilution method; type: functional; details: K-12 W3110, 20 h
Staphylococcus aureus = assay: Antibacterial activity against Staphylococcus aureus 209P after 20 hrs by liquid microdilution method; type: functional
Escherichia coli [2] = assay: Induction of outer membrane permeability in Escherichia coli K-12 W3110 assessed as increase in novobiocin antibacterial activity after 20 hrs by liquid microdilution method; type: functional, organism-based
Escherichia coli [3] = assay: Induction of outer membrane permeability in Escherichia coli K-12 W3110 assessed as increase in erythromycin antibacterial activity after 20 hrs by liquid microdilution method; type: functional, organism-based

SMILES | MIC (Escherichia coli [1]) [µg/mL] | MIC (Staphylococcus aureus) [µg/mL] | Activity (Escherichia coli [2]) | Activity (Escherichia coli [3])
CC(C)C[C@@H]1NC(=O)[C@@H](Cc2ccccc2)NC(=O)[C@H](CN)N(C(=O)O)CCNC(=O)[C@H]([C@@H](C)O)NC(=O)[C@H](CN)NC(=O)[C@H](CN)NC1=O | > 128 |  |  | 
CC(C)CCCCCCCC(=O)N[C@@H](C(=O)N[C@@H](CN)C(=O)NCC(=O)N1CCNC(=O)[C@H]([C@@H](C)O)NC(=O)[C@H](CCN)NC(=O)[C@H](CCN)NC(=O)[C@H](CC(C)C)NC(=O)[C@@H](Cc2ccccc2)NC(=O)[C@@H]1CCN)[C@@H](C)O | 0.5 (≈ 0.447 µM) | 64 (≈ 57.3 µM) |  | 
CO[C@@H]1[C@@H](OC(N)=O)[C@@H](O)[C@H](Oc2ccc3c(O)c(NC(=O)c4ccc(O)c(CC=C(C)C)c4)c(=O)oc3c2C)OC1(C)C [NOVOBIOCIN] | 128 (≈ 209 µM) |  |  | 
CCCCCCCC(=O)N[C@@H](CCN)C(=O)N[C@@](C)(C(=O)N[C@@H](CCN)C(=O)N[C@H]1CCNC(=O)[C@H]([C@@H](C)O)NC(=O)[C@H](CCN)NC(=O)[C@H](CCN)NC(=O)[C@H](CC(C)C)NC(=O)[C@@H](Cc2ccccc2)NC(=O)[C@H](CCN)N1)[C@H](C)O | 0.5 (≈ 0.425 µM) | > 128 |  | 
CC(C)C[C@@H]1NC(=O)[C@@H](Cc2ccccc2)NC(=O)[C@H](CCN)N(C(=O)O)CCNC(=O)[C@H]([C@@H](C)O)NC(=O)[C@H](CCN)NC(=O)[C@H](CCN)NC1=O | > 128 |  | Dose-dependent effect | Dose-dependent effect
CC[C@H]1OC(=O)[C@H](C)[C@@H](O[C@H]2C[C@@](C)(OC)[C@@H](O)[C@H](C)O2)[C@H](C)[C@@H](O[C@@H]2O[C@H](C)C[C@H](N(C)C)[C@H]2O)[C@](C)(O)C[C@@H](C)C(=O)[C@H](C)[C@@H](O)[C@]1(C)O [ERYTHROMYCIN] | 64 (≈ 87.2 µM) |  |  | 
CC(C)C[C@@H]1NC(=O)[C@@H](Cc2ccccc2)NC(=O)[C@H](CN)N(C(=O)O)CCNC(=O)[C@H]([C@@H](C)O)NC(=O)[C@H](CN)NC(=O)[C@H](CCCN)NC1=O | > 128 |  |  | 
CC(C)C[C@@H]1NC(=O)[C@@H](Cc2ccccc2)NC(=O)[C@H](CCCN)N(C(=O)O)CCNC(=O)[C@H]([C@@H](C)O)NC(=O)[C@H](CCCN)NC(=O)[C@H](CCCN)NC1=O | > 128 |  |  | 
CCCCCCCC(=O)N[C@@H](CCN)C(=O)N[C@@H](C(=O)N[C@@H](CCN)C(=O)N[C@H]1CCNC(=O)[C@H]([C@H](C)O)NC(=O)[C@H](CCN)NC(=O)[C@H](CCN)NC(=O)[C@H](CC(C)C)NC(=O)[C@@H](Cc2ccccc2)NC(=O)[C@H](CN)C1=O)[C@H](C)O | 16 (≈ 13.8 µM) | > 128 |  | 
CC(C)C[C@@H]1NC(=O)[C@@H](Cc2ccccc2)NC(=O)[C@H](CN)N(C(=O)O)CCNC(=O)[C@H]([C@@H](C)O)NC(=O)[C@H](CCCN)NC(=O)[C@H](CN)NC1=O | > 128 |  |  | 
